Bounds are passed on as bounds.

By IC50 is commonly meant the concentration that gives 50% inhibition. High values mean weaker potency, low ones greater potency. A word on the EC50: it is the concentration giving half of the maximal effect.

The target of assay [1] is T1, S1P1 (Homo sapiens (Human), UniProt P21453). The assay can be described thus: S1P1 Binding Assay (33P-S1P radioligand competition, membranes from CHO cells). The conditions noted are these: membranes from CHO cells expressing human S1P1; 0.03 nM 33P-S1P; rounded to two significant digits. Here is the method:
Membranes were prepared from CHO cells expressing human S1P1. Cells pellets (1×10^8 cells/pellet) were suspended in buffer containing 20 mM HEPES, pH 7.5, 50 mM NaCl, 2 mM EDTA and Protease Inhibitor cocktail (Roche), and disrupted on ice using the Polytron homogenizer. The homogenate was centrifuged at 20,000 rpm (48,000 g) and the supernatant was discarded. The membrane pellets were resuspended in buffer containing 50 mM HEPES, pH 7.5, 100 mM NaCl, 1 mM MgCl2, 2 mM EDTA and stored in aliquots at −80° C. after protein concentration determination.
The IC50 is defined as the concentration of competing ligand needed to reduce specific binding by 50%.
(Displacement assays read how much labelled ligand stays bound in the presence of the test substance.)

The target of the next assay is S1P3 (Homo sapiens (Human), UniProt Q99500). The assay can be described thus: Receptor [35S] GTPγS Binding Assay, EDG3-Ga15-bla HEK293T cell membranes. In kind it is biochemical. The conditions noted are these: membranes from EDG3-Ga15-bla HEK293T cells; rounded to two significant digits. As to the method:
(§1) Receptor [35S] GTPγS Binding Assays
(§2) Compounds were loaded in a 384 Falcon v-bottom plate (0.5 μl/well in a 11 point, 3-fold dilution). Membranes prepared from S1P1/CHO cells or EDG3-Ga15-bla HEK293T cells were added to the compound plate (40 μl/well, final protein 3 μg/well) with MULTIDROP®. [^35S]GTP (1250 Ci/mmol, Perkin Elmer) was diluted in assay buffer: 20 mM HEPES, pH7.5, 10 mM MgCl2, 150 mM NaCl, 1 mM EGTA, 1 mM DTT, 10 μM GDP, 0.1% fatty acid free BSA, and 10 μg/ml Saponin to 0.4 nM. 40 μl of the [^35S] GTP solution was added to the compound plate with a final concentration of 0.2 nM. The reaction was kept at room temperature for 45 min. At the end of incubation, all the mixtures in the compound plate were transferred to Millipore 384-well FB filter plates via the VELOCITY11® Vprep liquid handler. The filter plate was washed with water 4 times by using the manifold Embla plate washer and dried at 60° C. for 45 min. MicroScint 20 scintillation fluid (30 μl) was added to each well for counting on the Packard TOPCOUNT®. EC50 is defined as the agonist concentration that corresponds to 50% of the Ymax (maximal response) obtained for each individual compound tested. The results in Table B were rounded to two significant digits.
In general terms: GTPγS resists hydrolysis and so accumulates on activated G proteins.

Assay [2] concerns the target T1, S1P1. The assay can be described thus: Receptor [35S] GTPγS Binding Assay, S1P1/CHO cell membranes. The conditions noted are these: membranes from S1P1/CHO cells; rounded to two significant digits. The class given is biochemical. As to the method:
as §1, §2

Sequence of S1P3 (Q99500 whole entry): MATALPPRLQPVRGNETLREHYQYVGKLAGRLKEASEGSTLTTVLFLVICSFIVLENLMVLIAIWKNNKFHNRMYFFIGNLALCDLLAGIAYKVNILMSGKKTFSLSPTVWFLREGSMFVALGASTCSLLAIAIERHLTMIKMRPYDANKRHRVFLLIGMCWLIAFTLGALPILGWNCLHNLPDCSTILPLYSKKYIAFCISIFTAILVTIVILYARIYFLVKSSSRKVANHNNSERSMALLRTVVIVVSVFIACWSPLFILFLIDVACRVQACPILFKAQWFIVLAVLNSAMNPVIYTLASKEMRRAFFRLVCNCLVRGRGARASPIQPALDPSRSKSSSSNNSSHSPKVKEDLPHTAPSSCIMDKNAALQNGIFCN
T1 sequence (P21453 whole entry): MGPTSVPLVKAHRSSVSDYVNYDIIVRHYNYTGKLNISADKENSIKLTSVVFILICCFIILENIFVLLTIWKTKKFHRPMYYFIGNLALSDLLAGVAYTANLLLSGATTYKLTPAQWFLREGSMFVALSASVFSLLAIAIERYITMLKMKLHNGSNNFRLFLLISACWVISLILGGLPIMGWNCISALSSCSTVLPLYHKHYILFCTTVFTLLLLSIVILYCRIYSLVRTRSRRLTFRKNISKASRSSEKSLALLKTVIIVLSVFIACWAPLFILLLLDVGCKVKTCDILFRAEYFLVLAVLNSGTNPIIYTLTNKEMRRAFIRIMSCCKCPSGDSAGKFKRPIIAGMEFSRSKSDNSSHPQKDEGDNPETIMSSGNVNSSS

At S1P1 [1], `Cc1ccc(-c2noc(CCC3(c4cc(F)cc(F)c4)CCCCC3)n2)c(=O)[nH]1` [Example 1, 3-(5-(2-(1-(3,5-Difluorophenyl)cyclohexyl)ethyl)-1,2,4-oxadiazol-3-yl)-6-methyl-2(1H)-pyridinone] returned an IC50 of 1300 nM. This lies in the single-digit micromolar range.

Molecule `O=c1cc(-c2noc(CCC3(c4cc(F)cc(F)c4)CCCCC3)n2)cc[nH]1` [Example 2, 4-(5-(2-(1-(3,5-Difluorophenyl)cyclohexyl)ethyl)-1,2,4-oxadiazol-3-yl)-2(1H)-pyridinone] had an IC50 on S1P1 [1] of 13 nM.

On to `FC(F)(F)c1cc(-c2noc(CCC3(c4ccccc4)CCCCC3)n2)cc(C(F)(F)F)c1` [Example 4, 3-(3,5-bis(trifluoromethyl)phenyl)-5-(2-(1-phenylcyclohexyl)ethyl)-1,2,4-oxadiazole], for which the EC50 is over 62000 nM at S1P3 and 280 nM at S1P1 [2].

Regarding `Fc1ccc(-c2noc(CCC3(c4ccccc4)CCCCC3)n2)cc1` [Example 5, 3-(4-fluorophenyl)-5-(2-(1-phenylcyclohexyl)ethyl)-1,2,4-oxadiazole], at S1P1 [1], the IC50 came to 12 nM.

In the case of `c1ccc(-c2noc(CCC3(c4ccccc4)CCCCC3)n2)cc1` [Example 7, 3-phenyl-5-(2-(1-phenylcyclohexyl)ethyl)-1,2,4-oxadiazole], on S1P1 [1], the IC50 amounted to 3.3 nM. Besides, the EC50 at S1P3 was determined as 630 nM; on S1P1 [2], 130 nM.

Turning to `FC(F)(F)c1cccc(-c2noc(CCC3(c4ccccc4)CCCCC3)n2)c1` [Example 8, 5-(2-(1-phenylcyclohexyl)ethyl)-3-(3-(trifluoromethyl)phenyl)-1,2,4-oxadiazole], the IC50 on S1P1 [1] is 33 nM. Moreover, the EC50 on S1P3 is over 62000 nM; on S1P1 [2], 710 nM.

On to `Cc1cccc(-c2noc(CCC3(c4ccccc4)CCCCC3)n2)c1` [Example 9, 3-(3-methylphenyl)-5-(2-(1-phenylcyclohexyl)ethyl)-1,2,4-oxadiazole], for which the EC50 was 2200 nM at S1P3 and 530 nM on S1P1 [2].

For `Fc1ccc(-c2noc(CCC3(c4ccccc4)CCCCC3)n2)cc1F` [Example 12, 3-(3,4-difluorophenyl)-5-(2-(1-phenylcyclohexyl)ethyl)-1,2,4-oxadiazole], the EC50 at S1P3 came out at 5900 nM; on S1P1 [2], 330 nM.

`Fc1cc(-c2noc(CCC3(c4ccccc4)CCCCC3)n2)ccc1C(F)(F)F` [Example 13, 3-(3-fluoro-4-(trifluoromethyl)phenyl)-5-(2-(1-phenylcyclohexyl)ethyl)-1,2,4-oxadiazole] yielded an IC50 on S1P1 [1] of 210 nM.

As for `Clc1ccc(-c2noc(CCC3(c4ccccc4)CCCCC3)n2)c(Cl)c1` [Example 17, 3-(2,4-dichlorophenyl)-5-(2-(1-phenylcyclohexyl)ethyl)-1,2,4-oxadiazole], the EC50 on S1P3 amounted to 1200 nM; on S1P1 [2] it was 740 nM.

`COc1cc(OC)cc(-c2noc(CCC3(c4ccccc4)CCCCC3)n2)c1` [Example 19, 3-(3,5-dimethoxyphenyl)-5-(2-(1-phenylcyclohexyl)ethyl)-1,2,4-oxadiazole]: the EC50 worked out at 1700 nM at S1P3 and 2200 nM at S1P1 [2].

On S1P1 [1], `Fc1ccccc1COc1ccc(-c2noc(CCC3(c4ccccc4)CCCCC3)n2)cc1` [Example 20, 3-(4-((2-fluorobenzyl)oxy)phenyl)-5-(2-(1-phenylcyclohexyl)ethyl)-1,2,4-oxadiazole] displayed an IC50 of 410 nM.

`Clc1ncn(Cc2cccc(-c3noc(CCC4(c5ccccc5)CCCCC4)n3)c2)c1Cl` [Example 24, 3-(3-((4,5-dichloro-1H-imidazol-1-yl)methyl)phenyl)-5-(2-(1-phenylcyclohexyl)ethyl)-1,2,4-oxadiazole]: the EC50 at S1P3 turned out to be 1300 nM; on S1P1 [2], 3200 nM.

At S1P1 [1], `COc1ccc(OC)c(-c2noc(CCC3(c4ccccc4)CCCCC3)n2)c1` [Example 26, 3-(2,5-dimethoxyphenyl)-5-(2-(1-phenylcyclohexyl)ethyl)-1,2,4-oxadiazole] registered an IC50 of 8.1 nM. The figures for the EC50 at S1P3 and at S1P1 [2] were 16000 nM and 4900 nM, respectively.

With `Clc1ccc(COc2ccc(-c3noc(CCC4(c5ccccc5)CCCCC4)n3)cc2)cc1` [Example 27, 3-(4-((4-chlorobenzyl)oxy)phenyl)-5-(2-(1-phenylcyclohexyl)ethyl)-1,2,4-oxadiazole], the IC50 on S1P1 [1] amounted to 610 nM.

Take `Fc1ccc(-c2noc(CCC3(c4ccccc4)CCCCC3)n2)c(F)c1` [Example 28, 3-(2,4-difluorophenyl)-5-(2-(1-phenylcyclohexyl)ethyl)-1,2,4-oxadiazole]: the IC50 on S1P1 [1] was determined as 25 nM.

In the case of `Nc1cc(-c2noc(CCC3(c4ccccc4)CCCCC3)n2)ccn1` [Example 29, 4-(5-(2-(1-phenylcyclohexyl)ethyl)-1,2,4-oxadiazol-3-yl)-2-pyridinamine], the figures for the EC50 on S1P3 and on S1P1 [2] were 430 nM and 36 nM, respectively.

In the case of `c1ccc(C2(CCc3nc(-c4ccccn4)no3)CCCCC2)cc1` [Example 30, 2-(5-(2-(1-phenylcyclohexyl)ethyl)-1,2,4-oxadiazol-3-yl)pyridine], the IC50 on S1P1 [1] worked out at 97 nM. This lies in the double-digit nanomolar range.

In turn, `Clc1cc(-c2noc(CCC3(c4ccccc4)CCCCC3)n2)ccn1` [Example 32, 2-chloro-4-(5-(2-(1-phenylcyclohexyl)ethyl)-1,2,4-oxadiazol-3-yl)pyridine] showed an IC50 at S1P1 [1] of 0.54 nM. In addition, the EC50 on S1P3 was determined as 430 nM; on S1P1 [2] it was 50 nM.

The molecule `Nc1ncccc1-c1noc(CCC2(c3ccccc3)CCCCC2)n1` [Example 33, 3-(5-(2-(1-phenylcyclohexyl)ethyl)-1,2,4-oxadiazol-3-yl)-2-pyridinamine] yielded an IC50 on S1P1 [1] of 1.9 nM. Besides, the figures for the EC50 at S1P3 and on S1P1 [2] were 550 nM and 67 nM, respectively.

In turn, `[O-][n+]1ccc(-c2noc(CCC3(c4ccccc4)CCCCC3)n2)cc1` [Example 34, 4-(5-(2-(1-phenylcyclohexyl)ethyl)-1,2,4-oxadiazol-3-yl)pyridine 1-oxide] gave an IC50 at S1P1 [1] of 67 nM.

For the molecule `c1ccc(C2(CCc3nc(-c4cccnc4)no3)CCCCC2)cc1` [Example 38, 3-(5-(2-(1-phenylcyclohexyl)ethyl)-1,2,4-oxadiazol-3-yl)pyridine], the results for the EC50 on S1P3 and on S1P1 [2] were 2200 nM and 100 nM, respectively.

Turning to `Cc1ccsc1-c1noc(CCC2(c3ccccc3)CCCCC2)n1` [Example 40, 3-(3-methyl-2-thienyl)-5-(2-(1-phenylcyclohexyl)ethyl)-1,2,4-oxadiazole], the IC50 at S1P1 [1] was 1.2 nM. That is a single-digit nanomolar value.

With `c1ccc(-c2noc(C3(c4ccccc4)CCCCC3)n2)cc1` [Example 42, 3-Phenyl-5-(1-phenylcyclohexyl)-1,2,4-oxadiazole, reference compound], the IC50 at S1P1 [1] came to 12000 nM. The molecule also came in with an EC50 at S1P1 [2] of over 62000 nM.

(Values after patent US9187437B2, “Substituted oxadiazole compounds” (BRISTOL-MYERS SQUIBB COMPANY, priority 2010, dated 2015).)
